This experiment relates to BDF1 mice, P388 leukemia ip, median survival T/C. Nature of the experiment: NCI In Vivo Anticancer Drug Screen. Data for tumor model P388 Leukemia (intraperitoneal) in B6D2F1 (BDF1) mice. Particulars: endpoint: median survival time, higher = longer survival. In outline:
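Transplantable tumour in mice; compound vs vehicle dosing; survival scored; ratio of treated to control reported.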

The mark [1] stands for this setting: dose: 6.25 mg/kg/injection, schedule: Q01DX009 (ip), vehicle: Klucel (hydroxypropylcellulose) (HPC).
Where [2] appears, read: dose: 12.5 mg/kg/injection, schedule: Q01DX009 (ip), vehicle: Klucel (hydroxypropylcellulose) (HPC).
The mark [3] stands for this setting: dose: 25.0 mg/kg/injection, schedule: Q01DX009 (ip), vehicle: Klucel (hydroxypropylcellulose) (HPC).
Setting [4] is: dose: 100.0 mg/kg/injection, schedule: Q01DX009 (ip), vehicle: Klucel (hydroxypropylcellulose) (HPC).
Where [5] appears, read: dose: 200.0 mg/kg/injection, schedule: Q01DX009 (ip), vehicle: Klucel (hydroxypropylcellulose) (HPC).
Setting [6] is: dose: 50.0 mg/kg/injection, schedule: Q01DX009 (ip), vehicle: Klucel (hydroxypropylcellulose) (HPC).

Where “and” joins values, the source holds several entries; their conditions need not be identical. Equal values may be shown once. Toxic doses and inconclusive results are not listed.

Take `CC1=CCCC(C)(C)C1/C=C/C(C)=C/C(=O)O` (stereo unspecified): the T/C runs as follows: (dose: 3.13 mg/kg/injection, schedule: Q01DX009 (ip), vehicle: Klucel (hydroxypropylcellulose) (HPC)) 111 % of control; under setting [1], 103 % of control; under setting [2], 99 % of control; under setting [3], 99 % of control; under setting [4], 104 % of control; under setting [5], 110 % of control.

Take `c1ccc2c(c1)[nH]c1c2c[n+]2c3c(cccc13)CCC2`: the T/C is 119 % of control (dose: 3.13 mg/kg/injection, schedule: Q01DX009 (ip), vehicle: saline); 110 % of control (dose: 3.66 mg/kg/injection, schedule: Q01DX009 (ip), vehicle: saline); 105 % of control (dose: 5.49 mg/kg/injection, schedule: Q01DX009 (ip), vehicle: saline); 104 % of control (dose: 6.25 mg/kg/injection, schedule: Q01DX009 (ip), vehicle: saline).

As for `CC(/C=N/N=C(N)N)=N\N=C(N)N`, the T/C (dose: 40.0 mg/kg/injection, schedule: Q01DX009 (ip), vehicle: water) was 86 % of control and the T/C (dose: 60.0 mg/kg/injection, schedule: Q01DX010 (ip), vehicle: water) was 88 % of control.

Turning to `CC(=O)CC(C)=O.CC(=O)CC(C)=O.O.O.[Co]`, the T/C (dose: 22.0 mg/kg/injection, schedule: Q04DX003 (ip), vehicle: saline with Tween-80) was 105 % of control; the T/C (dose: 33.0 mg/kg/injection, schedule: Q04DX003 (ip), vehicle: saline with Tween-80) is 113 % of control; the T/C (dose: 75.0 mg/kg/injection, schedule: Q04DX003 (ip), vehicle: saline with Tween-80) is 102 % of control.

On to `NC(N)=NC(N)=Nc1ccc2ccc3cccc4ccc1c2c34`, for which the T/C runs as follows: (dose: 25.0 mg/kg/injection, schedule: Q04DX003 (ip), vehicle: saline + alcohol) 98 % of control; (dose: 50.0 mg/kg/injection, schedule: Q04DX003 (ip), vehicle: saline + alcohol) 106 % of control.

As to `O=Ic1ccccc1`, the T/C runs as follows: under setting [1], 105 % of control and 118 % of control; under setting [2], 105 % of control and 116 % of control; under setting [3], 122 % of control and 124 % of control and 204 % of control; (dose: 50.0 mg/kg/injection, schedule: Q04DX003 (ip), vehicle: Klucel (hydroxypropylcellulose) (HPC)) 104 % of control; (dose: 100.0 mg/kg/injection, schedule: Q04DX003 (ip), vehicle: Klucel (hydroxypropylcellulose) (HPC)) 95 % of control.

For `C[n+]1ccc(Nc2ccc(NC(=O)c3ccc(N)cc3)cc2)cc1`, the T/C (dose: 12.5 mg/kg/injection, schedule: Q01DX009 (ip), vehicle: water) is 101 % of control; the T/C (dose: 12.5 mg/kg/injection, schedule: Q04DX003 (ip), vehicle: water) was 100 % of control; the T/C (dose: 25.0 mg/kg/injection, schedule: Q04DX003 (ip), vehicle: water) is 98 % of control; the T/C (dose: 50.0 mg/kg/injection, schedule: Q04DX003 (ip), vehicle: water) is 100 % of control and 106 % of control; the T/C (dose: 100.0 mg/kg/injection, schedule: Q01DX009 (ip), vehicle: water) is 155 % of control; the T/C (dose: 100.0 mg/kg/injection, schedule: Q04DX003 (ip), vehicle: water) was 116 % of control and 117 % of control. The T/C by setting is: (dose: 200.0 mg/kg/injection, schedule: Q01DX009 (ip), vehicle: water) 154 % of control; (dose: 400.0 mg/kg/injection, schedule: Q01DX009 (ip), vehicle: water) 180 % of control; (dose: 500.0 mg/kg/injection, schedule: Q04DX003 (ip), vehicle: water) 123 % of control; (dose: 600.0 mg/kg/injection, schedule: Q04DX003 (ip), vehicle: water) 103 % of control.

As to `Cn1cnc([N+](=O)[O-])c1Sc1ncnc2c1ncn2C1OC(CO)C(O)C1O` (stereo unspecified), the T/C is, setting by setting: under setting [6], 113 % of control; under setting [4], 154 % of control; under setting [5], 122 % of control.

`COc1cc2cc(c1Cl)NC(=O)/C=C/C(C)=C/[C@H](C)[C@@H]1C[C@@](O)(NC(=O)O1)[C@H](OC)C=C/C=C(\C)C2`: the T/C runs as follows: (dose: 1.6 micrograms/kg/injection, schedule: Q01DX009 (ip), vehicle: saline + alcohol) 104 % of control; (dose: 3.1 micrograms/kg/injection, schedule: Q01DX009 (ip), vehicle: saline + alcohol) 95 % of control; (dose: 6.2 micrograms/kg/injection, schedule: Q01DX009 (ip), vehicle: saline + alcohol) 87 % of control; (dose: 25.0 micrograms/kg/injection, schedule: Q01DX009 (ip), vehicle: saline + alcohol) 108 % of control; (dose: 50.0 micrograms/kg/injection, schedule: Q01DX009 (ip), vehicle: saline + alcohol) 120 % of control; (dose: 100.0 micrograms/kg/injection, schedule: Q01DX009 (ip), vehicle: saline + alcohol) 120 % of control. In addition, the T/C (dose: 200.0 micrograms/kg/injection, schedule: Q01DX009 (ip), vehicle: saline + alcohol) was 104 % of control.

For `CCN(CC)CCOC(=O)c1ccccc1Nc1cccc(C)c1`, the T/C by setting is: (dose: 25.0 mg/kg/injection, schedule: Q01DX009 (ip), vehicle: saline) 104 % of control; (dose: 25.0 mg/kg/injection, schedule: Q04DX003 (ip), vehicle: saline) 109 % of control; (dose: 50.0 mg/kg/injection, schedule: Q01DX009 (ip), vehicle: saline) 108 % of control; (dose: 50.0 mg/kg/injection, schedule: Q04DX003 (ip), vehicle: saline) 100 % of control; (dose: 87.0 mg/kg/injection, schedule: Q04DX003 (ip), vehicle: saline) 119 % of control; (dose: 100.0 mg/kg/injection, schedule: Q04DX003 (ip), vehicle: saline) 109 % of control. Also, the T/C (dose: 175.0 mg/kg/injection, schedule: Q04DX003 (ip), vehicle: saline) is 107 % of control.

Consider `CCCC(C)(C)c1cc(C(C)C)cc(C(C)(C)CCC)c1O`, for which the T/C (dose: 12.5 mg/kg/injection, schedule: Q01DX009 (ip), vehicle: other) is 112 % of control; the T/C (dose: 25.0 mg/kg/injection, schedule: Q01DX009 (ip), vehicle: other) is 118 % of control; the T/C (dose: 50.0 mg/kg/injection, schedule: Q01DX009 (ip), vehicle: other) was 97 % of control.

As for `O=C(c1ccccc1)C1(Br)CCC1`, the T/C runs as follows: (dose: 100.0 mg/kg/injection, schedule: Q01DX009 (ip), vehicle: saline sonified) 91 % of control; (dose: 200.0 mg/kg/injection, schedule: Q01DX009 (ip), vehicle: saline sonified) 100 % of control; (dose: 400.0 mg/kg/injection, schedule: Q01DX009 (ip), vehicle: saline sonified) 95 % of control.

On to `Clc1ccc(NC2=NCCN=C(Nc3ccc(Cl)c(Cl)c3)SS2)cc1Cl`, for which the T/C was 100 % of control under setting [6], 92 % of control under setting [4] and 88 % of control under setting [5].

Take `CN=C(NC)c1ccc(NC(=O)/C=C\c2ccc(C(=O)Nc3ccc(C(=NC)NC)cc3)cc2)cc1`: the T/C (dose: 0.15 mg/kg/injection, schedule: Q01DX009 (ip), vehicle: saline with Tween-80) is 116 % of control; the T/C (dose: 0.5 mg/kg/injection, schedule: Q01DX009 (ip), vehicle: saline with Tween-80) was 155 % of control; the T/C (dose: 1.32 mg/kg/injection, schedule: Q04DX003 (ip), vehicle: saline with Tween-80) is 108 % of control; the T/C (dose: 1.5 mg/kg/injection, schedule: Q01DX009 (ip), vehicle: saline with Tween-80) was 161 % of control; the T/C (dose: 2.0 mg/kg/injection, schedule: Q04DX003 (ip), vehicle: saline with Tween-80) was 112 % of control; the T/C (dose: 4.4 mg/kg/injection, schedule: Q04DX003 (ip), vehicle: saline with Tween-80) was 154 % of control. The T/C is 162 % of control (dose: 4.5 mg/kg/injection, schedule: Q04DX003 (ip), vehicle: saline with Tween-80); 168 % of control (dose: 6.6 mg/kg/injection, schedule: Q04DX003 (ip), vehicle: saline with Tween-80); 154 % of control (dose: 10.0 mg/kg/injection, schedule: Q04DX003 (ip), vehicle: saline with Tween-80); 177 % of control (dose: 12.5 mg/kg/injection, schedule: Q04DX003 (ip), vehicle: saline with Tween-80); 177 % of control (dose: 15.0 mg/kg/injection, schedule: Q04DX003 (ip), vehicle: saline with Tween-80); 100 % of control (dose: 25.0 mg/kg/injection, schedule: Q04DX003 (ip), vehicle: saline with Tween-80). Besides, under “dose: 50.0 mg/kg/injection, schedule: Q04DX003 (ip), vehicle: saline with Tween-80”, the T/C is 86 % of control.

The values above are taken from PubChem BioAssay AID328 (DTP/NCI, 2004).
